Assay results as given in patent US20230105412A1, “5-HT3 RECEPTOR MODULATOR, THE CRYSTALLINE FORM, METHODS OF MAKING, AND USE THEREOF” (CHENGDU SCIMOUNT PHARMATECH CO., LTD., priority 2021, published 2023).
≈ marks a conversion by molar mass, not a printed value.

Key:
Assay type in all cases: physicochemical
[1] = Aqueous solubility study (water slurry, HPLC, pH, XRPD); conditions: for pH: pH of supernatant of overnight water slurry; for XRPD (Form) after water slurry: solids after overnight room temperature water slurry, initial Form A
Method: Approximately 20 mg of the free form, mesylate, hydrochloride, succinate, glutamate, naphthoate and phosphate salts of formula (I) were weighed to individual HPLC vials equipped with a magnetic stir bar and 0.05 mL increments of deionized water added. If dissolution was observed, the approximate solubility was recorded. If no dissolution had occurred, the slurries were stirred overnight at ambient temperature. The supernatant from each slurry was obtained using centrifuge filters. Each solution was tested for pH and by HPLG versus a calibration curve (FIG. 6) to determine the equilibrium solubility. Solids obtained from the filtration were analyzed by XRPD to confirm the crystalline form (Table 4).

[2] = Gravimetric moisture sorption analysis; conditions: for hygroscopicity: gravimetric moisture sorption; for hygroscopicity / water adsorbed / behaviour at high relative humidity: Form A; for XRPD of dried material following moisture sorption program: initial Form A; for behaviour at high relative humidity: above 80% RH (80% RH to 90% RH)
Method: The stability of each salt was assessed via room temperature slurries in organic solvent and water, storage at elevated temperature (60° C.), and exposure to elevated relative humidity by gravimetric moisture sorption. From the water slurries, the solubility of each salt was determined at ambient conditions.

[3] = Gravimetric water solubility by TGA; conditions: deionized water, ambient, TGA gravimetric or visual dissolution, XRPD Form A
Method: The water solubility of select salts afforded from the 70 mg scale experiments was estimated using the following gravimetric method. Approximately 20 mg of each confirmed salt was weighed into a 2 mL HPLC vial. 50 μL increments of deionized H2O were then added to each vial along with a small magnetic stir bar. If dissolution was observed, the samples were stored in a hood overnight and examined the next day for precipitation. Samples affording slurries after a maximum of 250 μl of water were left stirring at ambient conditions overnight to equilibrate. These samples were then centrifuge filtered, and 50 μL of each saturated solution was aliquoted into tared TGA pans. On the TGA, each sample was heated and held at elevated temperature until all solvent was dried off. Resulting dry weight and aliquoted volume for each saturated solution was then utilized in estimating solubility. Refer to Table 3 for results of this study.

[4] = Stability at elevated temperature (60° C., 7 days); conditions: for XRPD (Form) after elevated temperature: 60° C., 7 days, uncovered, ambient pressure, initial Form A
Method: Approximately 10 mg of the free form, mesylate, hydrochloride, succinate, glutamate, naphthoate and phosphate salts of formula (I) were weighed to individual 4 mL vials and stored uncovered in an oven at 60° C. and ambient pressure. After seven days of exposure, the solids were analyzed by XRPD to check for form conversion and ^1H-NMR for signs of degradation (Table 5).

[5] = Organic slurry experiments (7 days, THF or IPA); conditions: initial Form A
Method: Approximately 30 mg of the free form, mesylate, hydrochloride, succinate, glutamate, naphthoate and phosphate salts of formula (I) were weighed to individual HPLG vials equipped with a magnetic stir bar. Either THF or IPA was added to obtain a free flowing slurry. After seven days of ambient equilibration, solid from each slurry was obtained using centrifuge filtration with 0.45 μm nylon centrifuge filters, and dried at ambient temperature and ˜30 in Hg. After drying overnight, each was analyzed by XRPD to check for form conversion and ^1H-NMR for signs of degradation (Table 6).

[6] = Relative humidity study (95% RH); conditions: five hours, Form A lot HAL-G-29(2)
Method: Approximately 30 mg of Form A mono-glutamate salt [lot HAL-G-29(2)] was stored uncovered in a small glass container in a desiccator containing an aqueous saturated solution of Na2HPO4.12H2O to achieve a relative humidity of 95%. After five hours of exposure the solid had deliquesced and the sample was exposed to the lab environment (20% RH) overnight. The resulting dried solid was characterized by XRPD, DSC, and TGA.
As presented above, Form B was obtained following moisture sorption analysis of Form A and subsequent drying. In an effort to generate additional Form B for further characterization, a brief humidity study was performed as described below: approximately 30 mg of Form A mono-glutamate salt [lot HAL-G-29(2)] was stored uncovered in a small glass container in a desiccator containing an aqueous saturated solution of Na2HPO4.12H2O to achieve a relative humidity of 95%.

Structure (SMILES) | hygroscopicity [2] | XRPD of dried material following moisture sorption program [2] | XRPD (Form) after elevated temperature [4] | Estimated Water Solubility [3] [µg/mL] | XRPD (Form) 7 Days ([5]; ambient slurry in IPA) | further results
O=C1c2cccc3[nH]nc(c23)CCN1[C@@H]1CN2CCC1CC2 [Free Form, (S)-7-(quinuclidin-3-yl)-8,9-dihydro-2H-azepino[5,4,3-cd]indazol-6(7H)-one] | non hygroscopic | form conversion had not occurred | no signs of form conversion | – | – | pH [1]: 9.3; XRPD (Form) after water slurry [1]: no change in crystalline form; solubility ([1]; thermodynamic from solid, deionized water, ambient temperature, overnight slurry, HPLC or visual dissolution, initial XRPD Form A): 2000 µg/mL (≈ 6.75 mM); water adsorbed ([2]; throughout the humidity program): less than 0.2 wt %; solubility ([3]; thermodynamic from solid, read-out: Estimated Water Solubility): < 2500 µg/mL; 1H-NMR, signs of degradation [4]: No
Cl [Hydrochloric acid] | – | – | no signs of conversion | – | no signs of conversion | –
O=C(O)C[C@H](O)C(=O)O [L-Malic acid] | – | – | – | ≥80000 | – | Estimated Water Solubility ([3]; listed as malate salt): 80000 µg/mL
O=C1CCC(C(=O)O)N1 (centres unmarked) [2-pyrrolidine-5-carboxylic acid] | relatively non-hygroscopic | Form B | no signs of conversion | – | no signs of conversion | behaviour at 95% RH [6]: deliquesced; behaviour at high relative humidity ([2]; listed as glutamate): deliquesced; behaviour at high relative humidity ([2]; listed as mono-glutamate salt): deliquescence; 1H-NMR, signs of degradation [4]: No
O=C(O)c1ccc2ccccc2c1O [1-hydroxy-2-napthoic acid] | moderately hygroscopic | Form B | Form B | 4700 | Form B | Aqueous Solubility ([1]; deionized water, ambient temperature, overnight slurry, HPLC or visual dissolution, initial XRPD Form A): 2300 µg/mL; pH [1]: 6.2; XRPD (Form) after water slurry [1]: Form C; water adsorbed ([2]; 60% RH): 1.5 wt %; water adsorbed ([2]; 90% RH): 2.5 wt %; water content during desorption ([2]; curve stabilized from 75%-55% RH): approximately 2.0 wt %

More lines, main results first:

hygroscopicity [2] | XRPD of dried material following moisture sorption program [2] | XRPD (Form) after elevated temperature [4] | Estimated Water Solubility [3] [µg/mL] | XRPD (Form) 7 Days ([5]; ambient slurry in IPA) | Structure (SMILES) | further results
– | – | – | 17400 | – | Cc1ccc(S(=O)(=O)O)cc1 [p-toluenesulfonic acid] | Estimated Water Solubility ([3]; listed as tosylate salt): 20300 µg/mL
– | – | no signs of conversion | – | no signs of conversion | O=C(O)CCC(=O)O [Succinic acid] | –
– | – | no signs of conversion | – | no signs of conversion | O=P(O)(O)O [Phosphoric acid] | –
moderately hygroscopic | no form conversion had occurred | no signs of conversion | – | – | CS(=O)(=O)O [Methanesulfonic acid] | water adsorbed ([2]; 80% RH): 4.6 wt %; water adsorbed ([2]; 90% RH): 8.8 wt %; XRPD (Form) 7 Days ([5]; ambient slurry in THF): no signs of conversion
